Earlier results as cited in US20110045089A1, “VITAMIN K3 DERIVATIVE / NSA FORMULATION” (priority 2009, published 2011).

Tests used:
[1] = premix containing choline chloride, after 6 months of storage (FIG. 2)
[2] = 80° C., high humidity
[3] = for Total vitamin retention %: 1 × 2 × 3 × 4 (product of the four stress factors); for Vitamin retention, stress factor 1: vitamin premix without choline chloride: 2 months; for Vitamin retention, stress factor 4: petfood storage time: 8 months; for Vitamin retention, stress factor 2: extrusion temperature: 105° C.; for Vitamin retention, stress factor 3: drying/enrobing: 180° C.

Original amount of K3 remaining in premix [1] | Fraction decomposed during pelleting process [2] | Total vitamin retention % [3] | Vitamin retention, stress factor 1: vitamin premix without choline chloride [3] | Vitamin retention, stress factor 4: petfood storage time [3] | Vitamin retention, stress factor 2: extrusion temperature [3] | Vitamin retention, stress factor 3: drying/enrobing [3] | SMILES
≤ 70% | 50% | 25% | 100% | 47% | 70% | 76% | CC1(S(=O)(=O)O)CC(=O)c2ccccc2C1=O.NC(=O)c1cccnc1 (stereo not shown) [MNB, Nicotinamide Menadione Bisulfite]
– | – | 19% | 100% | 42% | 65% | 70% | CC1(S(=O)(=O)O)CC(=O)c2ccccc2C1=O.Cc1cc(C)nc(O)n1 (stereo not shown) [MPB, 2-hydroxy-4,6-dimethyl-pyrimidinium Menadione Bisulfite]
– | – | 5% | 98% | 27% | 50% | 37% | CC1(S(=O)(=O)[O-])CC(=O)c2ccccc2C1=O.[Na+] (stereo not shown) [MSB, Menadione Sodium Bisulphite]
– | – | 58% | 100% | 79% | 87% | 84% | NC(=O)c1cccnc1 [Niacinamide, nicotinamide]
